Source: ChEMBL document CHEMBL5465560, “Selectivity Literature for EUbOPEN Chemogenomic Library” (2024)
One block for each compound: values may come before it.

Tests used:
[1] = target: Mitogen-activated protein kinase 3 (Homo sapiens, UniProt P27361); assay: Selectivity interaction (SelectScreen profiling (Invitrogen)) EUB0000607a MAPK3; conditions: at 2 µM
[2] = target: T1, Mitogen-activated protein kinase kinase kinase 6 (Homo sapiens) (UniProt O95382); assay: Selectivity interaction (ActivX KiNativ screen (kinase selectivity in THP-1 cell lysates)) EUB0000639a MAP3K6; assay type: subcellular; conditions: lysate, at 5 µM
T1 sequence (whole entry): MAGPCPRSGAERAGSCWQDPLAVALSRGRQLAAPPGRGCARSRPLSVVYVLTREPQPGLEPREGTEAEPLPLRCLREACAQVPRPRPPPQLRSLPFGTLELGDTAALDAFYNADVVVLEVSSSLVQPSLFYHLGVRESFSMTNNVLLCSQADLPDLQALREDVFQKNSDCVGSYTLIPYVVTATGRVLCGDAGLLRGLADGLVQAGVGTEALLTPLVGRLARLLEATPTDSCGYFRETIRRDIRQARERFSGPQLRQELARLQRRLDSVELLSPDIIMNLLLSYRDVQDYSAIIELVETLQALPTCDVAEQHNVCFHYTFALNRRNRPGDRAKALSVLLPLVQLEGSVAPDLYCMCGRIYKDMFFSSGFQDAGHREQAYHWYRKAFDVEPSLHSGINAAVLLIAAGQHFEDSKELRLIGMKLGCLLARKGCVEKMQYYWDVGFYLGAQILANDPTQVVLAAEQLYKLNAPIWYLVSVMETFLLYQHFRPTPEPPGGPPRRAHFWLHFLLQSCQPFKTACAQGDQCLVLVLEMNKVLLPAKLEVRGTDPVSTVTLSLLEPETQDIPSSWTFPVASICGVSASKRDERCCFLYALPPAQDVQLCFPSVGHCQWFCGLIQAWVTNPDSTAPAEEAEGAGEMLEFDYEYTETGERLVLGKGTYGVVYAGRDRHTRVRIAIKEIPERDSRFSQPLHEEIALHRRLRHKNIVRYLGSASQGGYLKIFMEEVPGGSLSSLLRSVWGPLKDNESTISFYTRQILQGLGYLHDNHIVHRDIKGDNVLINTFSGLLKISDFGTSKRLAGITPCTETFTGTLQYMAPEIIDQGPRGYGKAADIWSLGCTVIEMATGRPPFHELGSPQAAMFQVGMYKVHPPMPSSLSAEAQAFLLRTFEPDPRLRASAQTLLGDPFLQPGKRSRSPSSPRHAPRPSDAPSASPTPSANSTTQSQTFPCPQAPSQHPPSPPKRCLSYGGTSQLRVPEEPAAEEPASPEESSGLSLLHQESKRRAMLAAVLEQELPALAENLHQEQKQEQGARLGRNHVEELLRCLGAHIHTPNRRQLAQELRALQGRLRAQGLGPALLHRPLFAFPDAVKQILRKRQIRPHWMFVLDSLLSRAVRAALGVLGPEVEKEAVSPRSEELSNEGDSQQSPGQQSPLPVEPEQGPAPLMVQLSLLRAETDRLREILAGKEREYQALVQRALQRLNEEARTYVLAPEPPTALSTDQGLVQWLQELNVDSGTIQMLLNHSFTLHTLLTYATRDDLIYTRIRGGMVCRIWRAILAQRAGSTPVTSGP

[3] = target: T2, Mitogen-activated protein kinase kinase kinase kinase 3 (Homo sapiens) (UniProt Q8IVH8); assay: Selectivity interaction (KinomeScan (DiscoverX)) EUB0000695a MAP4K3; conditions: at 100 nM
T2 sequence (whole entry): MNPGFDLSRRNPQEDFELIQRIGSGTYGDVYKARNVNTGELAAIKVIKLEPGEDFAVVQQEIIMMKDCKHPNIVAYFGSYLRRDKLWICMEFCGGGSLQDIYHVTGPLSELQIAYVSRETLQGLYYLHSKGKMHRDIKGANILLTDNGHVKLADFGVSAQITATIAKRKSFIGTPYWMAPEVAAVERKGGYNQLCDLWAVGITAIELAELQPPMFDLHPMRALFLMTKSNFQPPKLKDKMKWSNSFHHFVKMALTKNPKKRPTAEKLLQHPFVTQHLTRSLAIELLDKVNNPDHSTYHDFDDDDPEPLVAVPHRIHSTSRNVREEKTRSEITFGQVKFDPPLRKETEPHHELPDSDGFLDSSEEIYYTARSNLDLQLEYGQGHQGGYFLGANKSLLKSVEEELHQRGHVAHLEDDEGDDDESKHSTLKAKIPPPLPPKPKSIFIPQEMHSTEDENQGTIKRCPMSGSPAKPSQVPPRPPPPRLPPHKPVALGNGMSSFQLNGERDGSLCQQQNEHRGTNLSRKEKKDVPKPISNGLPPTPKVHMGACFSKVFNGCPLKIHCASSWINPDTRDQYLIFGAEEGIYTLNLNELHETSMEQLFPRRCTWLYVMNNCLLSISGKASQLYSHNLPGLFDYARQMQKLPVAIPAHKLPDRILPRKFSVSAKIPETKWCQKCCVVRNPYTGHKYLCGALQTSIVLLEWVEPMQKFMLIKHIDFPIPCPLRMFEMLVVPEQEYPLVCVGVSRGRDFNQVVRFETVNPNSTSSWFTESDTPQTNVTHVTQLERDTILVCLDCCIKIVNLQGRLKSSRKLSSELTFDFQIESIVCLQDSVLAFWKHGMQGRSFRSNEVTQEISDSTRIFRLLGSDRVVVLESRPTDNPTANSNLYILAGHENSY

[4] = target: Dual specificity protein kinase CLK3 (Homo sapiens, UniProt P49761); assay: Selectivity interaction (Enzymatic assay (Eurofins)) EUB0001049a CLK3
Sequence of Dual specificity protein kinase CLK3 (P49761 whole entry): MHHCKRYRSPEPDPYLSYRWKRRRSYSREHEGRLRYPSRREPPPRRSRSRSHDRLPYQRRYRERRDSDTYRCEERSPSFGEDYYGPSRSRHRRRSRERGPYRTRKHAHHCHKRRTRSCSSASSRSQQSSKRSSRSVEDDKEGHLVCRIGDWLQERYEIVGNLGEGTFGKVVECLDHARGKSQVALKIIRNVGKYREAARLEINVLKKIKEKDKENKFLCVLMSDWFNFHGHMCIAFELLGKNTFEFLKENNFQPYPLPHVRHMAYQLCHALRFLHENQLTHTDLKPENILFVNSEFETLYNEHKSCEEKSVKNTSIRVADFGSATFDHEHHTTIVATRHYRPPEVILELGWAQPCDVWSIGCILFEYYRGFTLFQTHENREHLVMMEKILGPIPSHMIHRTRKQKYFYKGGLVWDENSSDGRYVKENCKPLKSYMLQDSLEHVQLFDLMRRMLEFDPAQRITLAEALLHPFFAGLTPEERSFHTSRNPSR

[5] = target: Calcium/calmodulin-dependent protein kinase type II subunit delta (Homo sapiens) (UniProt Q13557); assay: Selectivity interaction (KinomeScan (DiscoverX)) EUB0000655a CAMK2D; conditions: at 10 µM
Sequence of Calcium/calmodulin-dependent protein kinase type II subunit delta (Homo sapiens) (Q13557 whole entry): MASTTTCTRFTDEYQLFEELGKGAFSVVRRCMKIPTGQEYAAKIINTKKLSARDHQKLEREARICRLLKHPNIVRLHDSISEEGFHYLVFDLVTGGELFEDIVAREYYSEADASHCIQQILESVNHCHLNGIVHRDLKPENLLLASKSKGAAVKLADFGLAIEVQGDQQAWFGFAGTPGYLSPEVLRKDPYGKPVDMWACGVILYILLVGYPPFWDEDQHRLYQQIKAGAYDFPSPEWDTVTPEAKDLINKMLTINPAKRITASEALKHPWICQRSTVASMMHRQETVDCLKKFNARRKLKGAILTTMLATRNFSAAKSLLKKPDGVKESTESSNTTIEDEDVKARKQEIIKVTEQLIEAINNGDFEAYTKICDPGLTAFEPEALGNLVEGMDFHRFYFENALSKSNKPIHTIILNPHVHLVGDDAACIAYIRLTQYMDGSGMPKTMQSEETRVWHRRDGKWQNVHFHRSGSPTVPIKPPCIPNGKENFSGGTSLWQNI

[6] = target: Serine/threonine-protein kinase PAK 4 (Homo sapiens, UniProt O96013); assay: Selectivity interaction (KinomeScan (DiscoverX)) EUB0000229b PAK4; conditions: at 10 µM
Sequence of Serine/threonine-protein kinase PAK 4 (O96013 whole entry, looked up): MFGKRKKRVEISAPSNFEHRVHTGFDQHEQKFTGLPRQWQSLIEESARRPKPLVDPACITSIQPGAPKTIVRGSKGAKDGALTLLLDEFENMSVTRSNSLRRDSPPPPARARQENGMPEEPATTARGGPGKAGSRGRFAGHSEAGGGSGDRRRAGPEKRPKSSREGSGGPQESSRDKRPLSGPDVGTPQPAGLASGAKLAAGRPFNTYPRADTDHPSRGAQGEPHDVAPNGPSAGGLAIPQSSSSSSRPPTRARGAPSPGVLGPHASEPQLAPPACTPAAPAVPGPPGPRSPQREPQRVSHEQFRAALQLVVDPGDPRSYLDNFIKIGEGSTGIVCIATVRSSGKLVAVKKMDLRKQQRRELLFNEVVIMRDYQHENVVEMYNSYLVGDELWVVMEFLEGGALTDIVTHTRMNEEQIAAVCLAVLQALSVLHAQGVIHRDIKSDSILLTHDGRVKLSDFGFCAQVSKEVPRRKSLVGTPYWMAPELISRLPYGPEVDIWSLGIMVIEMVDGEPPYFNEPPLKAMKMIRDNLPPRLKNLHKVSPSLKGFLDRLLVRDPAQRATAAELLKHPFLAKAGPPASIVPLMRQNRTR

Sequence of Mitogen-activated protein kinase 3 (P27361 whole entry): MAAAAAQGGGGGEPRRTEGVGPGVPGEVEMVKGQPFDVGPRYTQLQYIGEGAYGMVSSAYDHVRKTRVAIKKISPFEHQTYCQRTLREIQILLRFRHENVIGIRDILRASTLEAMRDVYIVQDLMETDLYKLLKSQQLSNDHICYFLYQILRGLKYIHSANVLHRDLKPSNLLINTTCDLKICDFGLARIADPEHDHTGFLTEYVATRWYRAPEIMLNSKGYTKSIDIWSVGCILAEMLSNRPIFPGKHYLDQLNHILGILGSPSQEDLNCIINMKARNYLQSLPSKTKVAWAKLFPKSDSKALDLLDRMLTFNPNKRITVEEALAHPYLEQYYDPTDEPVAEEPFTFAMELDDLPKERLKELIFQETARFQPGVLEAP

SMILES: CNC(=O)Nc1ccc(-c2nc(N3CC4CCC(C3)O4)c3cnn(C4CCC5(CC4)OCCO5)c3n2)cc1
% of inhibition [1]: 1%

% of inhibition [2]: -27%
SMILES: CC[C@@H]1[C@H](F)C(=O)N[C@@H]1COc1nccc2cc(C(N)=O)c(OC)cc12 [ZIMLOVISERTIB]

SMILES: Cc1cc(F)c(C(=O)Nc2cccc(-c3nncn3C(C)C)n2)cc1-n1cnc(C2CC2)c1
% of control [3]: 70%

SMILES: COc1cc(Nc2nc(C)cc(-c3cnn4nc(OC)ccc34)n2)cc(C(F)(F)F)c1
IC50 [4]: > 10 µM

SMILES: CN(C)CCOc1ccc(-c2nc(-c3ccncc3)c(-c3ccc4c(c3)CC/C4=N\O)[nH]2)cc1
% of control [5]: 100%

SMILES: COc1cc(N(C)c2ccnc3ccc(C(F)(F)F)cc23)cc(OC)c1OC
% binding [6]: 81%
